The values that follow are results of earlier work, collected in PMC2694617 (Journal of medicinal chemistry, 2009).

Like-named read-outs stand apart in the source and are kept apart here.

Data set [1] concerns the target T1, human NTS1 (Homo sapiens, UniProt P30989).
The conditions of data set [2]: ref [6],[11],[18],[19].
Data set [3] relates to rat model of inflammatory pain. The note with it: in vivo.
Data set [4] concerns the target T1, human NTS1. This is another data set of the same source.

T1 sequence (P30989 whole entry): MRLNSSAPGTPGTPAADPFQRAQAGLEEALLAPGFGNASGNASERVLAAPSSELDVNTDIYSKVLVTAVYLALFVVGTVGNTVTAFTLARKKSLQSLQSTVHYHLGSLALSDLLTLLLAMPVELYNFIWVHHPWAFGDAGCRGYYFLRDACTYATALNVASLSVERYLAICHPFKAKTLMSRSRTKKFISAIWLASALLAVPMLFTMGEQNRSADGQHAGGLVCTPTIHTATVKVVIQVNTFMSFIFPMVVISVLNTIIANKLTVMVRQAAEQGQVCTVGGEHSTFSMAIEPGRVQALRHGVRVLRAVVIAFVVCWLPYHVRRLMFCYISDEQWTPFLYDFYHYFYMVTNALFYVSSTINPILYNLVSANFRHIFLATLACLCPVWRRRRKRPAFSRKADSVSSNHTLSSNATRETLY

Consider “(N-methyl-Arg)-Lys-Pro-(L-neo-Trp)-(tert-Leu)-Leu (RKPWLL) [NT69L]”, for which, in the data set with human NTS1 [1] (ref [11]), the Kd is 1.55 nM.
In the case of “(N-methyl-Arg)-Lys-Pro-(L-neo-Trp)-(tert-Leu)-Leu [NT69L]”, in data set [2], the BBB penetration entry is listed as “penetrates the BBB”. In addition, the analgesic activity result (ref [6],[11],[18],[19]) was “potent analgesic”.
On to “NT: endogenous neuropeptide; full-length, unmodified NT”, for which, under “mediated spinally and/or supraspinally by NT receptors, ref [5],[6]”, the analgesic activity result is recorded as “potent analgesic activity”.
With contulakin-G, in data set [3], the potency result is “picomolar potency”.
For “cyclo(KKPYILKKPYIL) [JMV2012] [listing 1 of 2 here]”, the Kd in the data set with human NTS1 [1] (ref [12]) was 150 nM.
On to “cyclo(KKPYILKKPYIL) [JMV2012] [listing 2 of 2 here]”, for which the analgesic activity entry (previously described, ref [12]) is “analgesic”.
neurotensin (from UniProt P30990): the Ki in the data set with human NTS1 [4] is 0.5 nM.

By Kd is commonly meant a measure of binding affinity in units of concentration. A word on the Ki: it is a dissociation constant, usually derived from enzyme kinetics or from competition with a known ligand.
